# From patent US20180177766A1, “THERAPEUTIC AGENT FOR NEUROTROPHIC KERATOPATHY” (SENJU PHARMACEUTICAL CO., LTD., priority 2015, published 2018)
# Assays:
# [1] = tested on: corneal epithelial disorder in GK rats; test: Corneal epithelial disorder in spontaneously diabetic Goto-Kakizaki (GK) rat, fluorescein staining score; type: in vivo
# Experimental: Male GK rats (20 rats) (Wakuta M., et al., Invest. Ophthalmol. Vis. Sci. 2007 48 590-596) purchased from CLEA Japan, Inc. were used. Corneal epithelial disorders associated with neuropathy were found in GK rats (Wang F., et al., Am J Pathol. 2012 181 2058-2066). GK rats are originated from Wistar rats and therefore, Wistar rats were used as normal control group (7 rats). The animals were bred in a breeding room set to room temperature 23° C.±3° C., humidity 55%±10% RH, 12 hr lighting (08:00 lighting, 20:00 lights-out) from the arrival to the test end date. The animals were allowed to freely ingest a solid feed (Labo MR Stock, Nosan Corporation) and freely ingest tap water, passed through a sterilizer for animal drink, from an automatic-water supply apparatus. The test was performed on an approval from the animal care and use committee based on the Act on Welfare and Management of Animals (Act No. 105 of Oct. 1, 1973, final revision: Act No. 38 of Jun. 12, 2013) and the like.
# As a test substance, compound A was used. Compound A was dissolved in the vehicle (Table 2) to 0.005% and used as an ophthalmic solution. As a control group, a vehicle ophthalmic solution made solely of a vehicle (Table 2) and free of compound A was used.
# GK rats were assigned to three groups of compound A ophthalmic solution administration group (4 rats) and non-administration group and vehicle ophthalmic solution administration group (8 for each group) using a statistical analysis software (SAS clinical package ver. 5.0, SAS Institute Japan), such that mean blood glucose concentration and mean corneal epithelial disorder score measured before instillation administration were uniform.
# Compound A ophthalmic solution or vehicle ophthalmic solution was administered by instillation for 14 days. Instillation administration was performed 4 times per day at 10 μL/administration to both eyes with a micropipette. The administration was not performed on the non-administration group and Wistar rats.
# 0.1% Sodium fluoresceinate (Wako Pure Chemical Industries, Ltd.) (5 μL) was administered by instillation and fluorescein staining of the corneal epithelium was observed using a slit lamp, whereby the degree of corneal epithelial disorder was determined. To show the degree of abnormal findings in detail, one item was added to the diagnostic criteria of the McDonald-Shadduck method and used as the diagnostic criteria of the test (Table 3). The corneal epithelial disorder was scored for each of the three (upper, middle and lower) regions and the scores of the 3 regions were added up together. The corneal epithelial disorder was observed 2, 4, 6, 8, 11 and 15 days after the instillation administration.
# [2] = tested on: corneal sensitivity of rabbit cornea after corneal flap production; test: Decrease of corneal sensitivity after corneal flap production in rabbit (Cochet-Bonnet corneal esthesiometer); type: in vivo, Japanese white rabbit; conditions: 0.005% ophthalmic solution, 50 μL instillation 4 times per day for 17 days, compared with vehicle ophthalmic solution, FIG. 2 and FIG. 3
# Experimental: Male Japanese white rabbits (body weight 2.80-3.32 kg) purchased from KITAYAMA LABES Co., Ltd. were used. The animals were bred in a breeding room set to room temperature 23° C.±3° C., humidity 55%±10% RH, 12 hr lighting (08:00 lighting, 20:00 lights-out) from the arrival to the test end date. A solid feed (Labo R Stock, Nosan Corporation, 100-120 g/day) was given to the animals, and the animals were allowed to freely ingest tap water, passed through a sterilizer for animal drink, from an automatic-water supply apparatus. The test was performed on an approval from the animal care and use committee based on the Act on Welfare and Management of Animals (Act No. 105 of Oct. 1, 1973, final revision: Act No. 38 of Jun. 12, 2013) and the like.
# As a test substance, [3-[2-[4-isopropyl-2-(4-trifluoromethyl)phenyl-5-thiazolyl]ethyl]-5-methyl-1,2-benzisoxazol-6-yl]oxyacetic acid (hereinafter to be referred to as compound A) was used. […]
# Before production of corneal flap, the anterior ocular segment of the rabbits was macroscopically observed, and the rabbits showing no abnormality were selected. Then, using Cochet-Bonnet corneal esthesiometer (manufactured by LUNEAU), the corneal sensitivity at measurement locations 1 and 2 in FIG. 1 was measured, and the rabbits showing a corneal sensitivity threshold of not less than 15 mm at both measurement locations 1 and 2 were selected. […]
# PPARδ = target: T1, PPARδ (Homo sapiens, UniProt Q03181); conditions: method described in Example 12 of WO 2003/033493; cited from earlier work
# T1 sequence (Q03181 1-441): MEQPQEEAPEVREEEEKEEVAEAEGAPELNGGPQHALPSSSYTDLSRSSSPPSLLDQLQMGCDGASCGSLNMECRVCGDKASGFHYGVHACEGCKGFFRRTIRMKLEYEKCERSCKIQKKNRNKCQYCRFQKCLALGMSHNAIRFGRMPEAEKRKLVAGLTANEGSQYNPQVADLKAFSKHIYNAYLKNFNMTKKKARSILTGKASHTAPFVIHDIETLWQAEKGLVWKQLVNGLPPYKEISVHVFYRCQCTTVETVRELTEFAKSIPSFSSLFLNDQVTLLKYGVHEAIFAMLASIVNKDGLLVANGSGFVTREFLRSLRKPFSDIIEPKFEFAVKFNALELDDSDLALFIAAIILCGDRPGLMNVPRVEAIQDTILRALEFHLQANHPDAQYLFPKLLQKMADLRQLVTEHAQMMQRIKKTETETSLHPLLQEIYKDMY
smiles,measurement,setting,value
"Cc1cc2c(CCc3sc(-c4ccc(C(F)(F)F)cc4)nc3C(C)C)noc2cc1OCC(=O)O [compound A, [3-[2-[4-isopropyl-2-(4-trifluoromethyl)phenyl-5-thiazolyl]ethyl]-5-methyl-1,2-benzisoxazol-6-yl]oxyacetic acid]","corneal epithelial disorder, result in words","[1]; 0.005% ophthalmic solution for 14 days, compared with non-administration and vehicle groups",improved
same,corneal epithelial disorder score (sum of 3 regions),"[1]; 8 days after administration, 0.005% ophthalmic solution, 10 μL 4 times per day, both eyes",4.06 ± 0.20
same,corneal epithelial disorder score (sum of 3 regions),"[1]; 11 days after administration, 0.005% ophthalmic solution, 10 μL 4 times per day, both eyes",4.00 ± 0.13
same,corneal epithelial disorder score (sum of 3 regions),"[1]; 15 days after administration, 0.005% ophthalmic solution, 10 μL 4 times per day, both eyes",4.00 ± 0.13
same,corneal epithelial disorder score (sum of 3 regions),"[1]; before administration (baseline), mean ± spread",4.63 ± 0.33
same,recovery of corneal sensitivity at measurement locations 1 and 2 after corneal flap production,[2],recovered faster
same,PPARδ agonist activity,PPARδ,confirmed to have a PPARδ agonist activity
